Test results published in US9018253B2, “Phenylcarbamate compound and muscle relaxant containing the same” (Bio-Pharm Solutions Co., Ltd., priority 2010, dated 2015).
Marks after values point to notes of the source that are not given here.

What was measured:
Format in all cases: in vivo
male mice (ICR) [1] = experiment: Residence time on a rotarod rotating at a fixed speed (Fixed 15 r.p.m. Rotarod, muscle relaxation); conditions: intraperitoneal (10 ul/g, bw), at time of maximum effect, 50% vs vehicle only (100%), 15 rpm, max 10 min
Method: (§1) For testing, male mice (ICR) were purchased from ORIENT BIO INC. (Korea), divided into several groups with 6 mice in each group, and were adapted for 4-5 days. The mice having the weight ranging from 19 g to 26 g were employed for the test. The pharmacological effect of the test compounds on muscle relaxation was evaluated by Rotarod test, grip strength test, and muscular force (wire hang) test. All mice were adapted to the test environment at one hour before starting the tests. The pharmacological effects of all the test compounds were evaluated by administration through peritoneal cavity of the mice (10 ul/g, bw).
All the mice to be tested were preliminarily trained for 5 minutes on a rod rotating at the rate of 15 revolutions per a minute. The mice that could not remain on the rod without falling off therefrom for a minimum of 2 minutes were excluded from this testing. After the training, all the mice were allowed to rest for 45-60 minutes. Before the administration of the test compounds, the mice were subjected to a further training for one minute on the rod rotating under the same condition, where the mice falling off from the rod were excluded from this experimentation. […] In case a mouse stays on the rod until the test is finished, the time was recorded as 10 minutes. As test time for evaluation, a maximum of 10 minutes was applied. This experimentation was conducted according to the method described in the reference, ‘Yasuda et al. (2005) Antipyretic, analgesic and muscle relaxant activities of Pueraria isoflavonoids and their metabolites from Pueraria lobata Ohwi—a traditional Chinese drug. Biol. Pharm. Bull. 28: 1224-1228’.
(§2) The obtained results are shown as mean±sem. The difference between the groups was statistically analyzed by ANOVA, and then, further examined by Dunnett's test or Bonferroni test. If p is less than 0.05, it was determined that the difference between the groups had statistical significance.
(§3) The results of muscle relaxation activity of the phenyl carbamate compounds measured in above Experimental Examples 1 to 4 are shown in following Table 3.

male mice (ICR) [2] = experiment: Endurance time on a rotarod rotating at accelerated speed (Acc. Rotarod, muscle relaxation); conditions: Mus musculus, ip, 5 min, intraperitoneal (10 ul/g, bw), at time of maximum effect, 50% of muscle relaxation activity vs vehicle only (100%), rod accelerated 4 to 40 rpm, max 5 min, read-out: MR test ED50, I = Acc. Rotarod
Method: as §1
At 24 hours before testing, the mice to be tested were preliminarily trained for 5 minutes on a rod rotating at the rate of 6 revolutions per a minute. The pharmacological effect on muscle relaxation of the test compounds were evaluated by observing the mice on a rod for 5 minutes, where the rod was accelerated from 4 to 40 revolutions per a minute during the test time. The endurance time that each mouse endures on the acceleratedly rotated rod without falling off from the rod was recorded. As test time for evaluation, a maximum of 5 minutes was applied. […] This experimentation was conducted according to the method described in the reference, ‘Monville et al. (2006) Comparison of incremental and accelerating protocol of the rotarod test for the assessment of motor deficits in the 6-OHDA model. J. Neurosci. Meth. 158: 219-223’.
as §2, §3

male mice (ICR) [3] = experiment: Grip strength test (forelimbs, muscle relaxation); conditions: for ED50: Mus musculus, ip, intraperitoneal (10 ul/g, bw), at time of maximum effect, 50% vs vehicle only (100%), read-out: MR test ED50, III = Grip strength
Method: as §1
A grip strength test using the test animals' forelimbs was performed using an instrument equipped with triangle ring and designed so as to easily grip with the forelimbs of experimental animals, manufactured from Ugo Basile Inc. (Ugo Basile, Model 47106, Italy). The test was conducted before and after administration of the compounds to evaluate the effects thereof. […] The mouse was made to grip the rod with its forelimbs, and its tail was pulled, where the force at which the mouse detached from the rod was recorded. The instrument indicated the force in grams. All of the mice were given 3 opportunities for test, and the 3 highest values among the test opportunities were selected and the mean value was used as the test result. This experimentation was conducted according to the method described in the reference, ‘Nevins et al. (1993) Quantitative grip strength assessment as a means of evaluating muscle relaxation in mice. Psychopharmacol. 110: 92-96’.
as §2, §3

male mice (ICR) [4] = experiment: Wire hang test (muscular force, muscle relaxation); conditions: for ED50: Mus musculus, ip, intraperitoneal (10 ul/g, bw), at time of maximum effect, 50% vs vehicle only (100%), read-out: MR test ED50, IV = Wire hang; for IV = Wire hang, effect (%) compared to that of control treated with vehicle only: 100 mg/kg administered, intraperitoneal
Method: as §1
This experimentation was conducted using a metal wire of 30 cm in length, which was suspended between two pillars at a height of about 40 cm from the bottom covered with a soft pad. […] Each mouse was made to grip the wire using two forelimbs, and the elapse time before the mouse fell off from the wire to the pad on the bottom was recorded in seconds. Each mouse was given 5 opportunities for this test at an interval of 2 minutes period. The highest 3 records among the test opportunities were selected and the mean value was used as the test result. This experimentation was conducted according to the method described in the reference, ‘Jacqueline N. Crawley (1999) Behavioral phenotyping of transgenic and knockout mice: experimental design and evaluation of general health, sensory functions, motor abilities, and specific behavioral tests. Brain Res. 835: 18-26’.
as §2, §3

| Compound | MR test ED50, II = Fixed 15 r.p.m. Rotarod (male mice (ICR) [1]) | also measured |
| --- | --- | --- |
| CC(OC(N)=O)C(O)c1ccccc1Cl (racemic) [Compound 3, 1-(2-chlorophenyl)-1-hydroxypropyl-2-carbamate] | 47.7 mg/kg, bw |  |
| CNC(=O)OC(C)C(O)c1ccccc1Cl (racemic) [Compound 29, 1-(2-chlorophenyl)-1-hydroxypropyl-2-N-methylcarbamate] | 41.0 mg/kg, bw |  |
| C[C@H](OC(N)=O)[C@@H](O)c1ccccc1Cl [Compound 1, 1-(2-chlorophenyl)-(S)-1-hydroxypropyl-(S)-2-carbamate] | 23.3 mg/kg, bw |  |
| C[C@@H](OC(N)=O)[C@H](O)c1ccccc1Cl [Compound 2, 1-(2-chlorophenyl)-(R)-1-hydroxypropyl-(R)-2-carbamate] | 76.5 mg/kg, bw |  |
| C[C@H](OC(N)=O)[C@H](O)c1ccccc1Cl [Compound 4, 1-(2-chlorophenyl)-(R)-1-hydroxypropyl-(S)-2-carbamate] | 65.0 mg/kg, bw | ED50 (male mice (ICR) [2]): 69.3 mg/kg; ED50 (male mice (ICR) [3]): 124 mg/kg; ED50 (male mice (ICR) [4]): 40 mg/kg |
| C[C@@H](OC(N)=O)[C@@H](O)c1ccccc1Cl [Compound 5, 1-(2-chlorophenyl)-(S)-1-hydroxypropyl-(R)-2-carbamate] | 65.5 mg/kg, bw | ED50 (male mice (ICR) [2]): 66.9 mg/kg; ED50 (male mice (ICR) [3]): 95 mg/kg; ED50 (male mice (ICR) [4]): 52.5 mg/kg |
| CNC(=O)O[C@@H](C)[C@@H](O)c1ccccc1Cl [Compound 15, 1-(2-chlorophenyl)-(S)-1-hydroxypropyl-(S)-2-N-methylcarbamate] | 42.8 mg/kg, bw |  |
| CCCNC(=O)O[C@@H](C)[C@@H](O)c1ccccc1Cl [Compound 16, 1-(2-chlorophenyl)-(S)-1-hydroxypropyl-(S)-2-N-propylcarbamate] | 61.6 mg/kg, bw |  |
| CC(C)NC(=O)O[C@@H](C)[C@@H](O)c1ccccc1Cl [Compound 17, 1-(2-chlorophenyl)-(S)-1-hydroxypropyl-(S)-2-N-isopropylcarbamate] | 66.4 mg/kg, bw |  |
| C[C@H](OC(=O)NC1CC1)[C@@H](O)c1ccccc1Cl [Compound 18, 1-(2-chlorophenyl)-(S)-1-hydroxypropyl-(S)-2-N-cyclopropylcarbamate] | 61.2 mg/kg, bw |  |
| CNC(=O)O[C@H](C)[C@H](O)c1ccccc1Cl [Compound 22, 1-(2-chlorophenyl)-(R)-1-hydroxypropyl-(R)-2-N-methylcarbamate] | 25.1 mg/kg, bw |  |
| CC(C)NC(=O)O[C@H](C)[C@H](O)c1ccccc1Cl [Compound 24, 1-(2-chlorophenyl)-(R)-1-hydroxypropyl-(R)-2-N-isopropylcarbamate] | 44.3 mg/kg, bw |  |
| C[C@@H](OC(=O)NC1CC1)[C@H](O)c1ccccc1Cl [Compound 25, 1-(2-chlorophenyl)-(R)-1-hydroxypropyl-(R)-2-N-cyclopropylcarbamate] | 18.3 mg/kg, bw | ED50 (male mice (ICR) [2]): 30 mg/kg; ED50 (male mice (ICR) [3]): 46.1 mg/kg; ED50 (male mice (ICR) [4]): 32.9 mg/kg |
| C[C@H](OC(N)=O)[C@@H](O)c1ccccc1F [Compound 63, 1-(2-fluorophenyl)-(S)-1-hydroxypropyl-(S)-2-carbamate] |  | IV = Wire hang, effect (%) compared to that of control treated with vehicle only (male mice (ICR) [4]): 100 ^a (84.2%) |
| C[C@@H](OC(N)=O)[C@H](O)c1ccccc1F [Compound 64, 1-(2-fluorophenyl)-(R)-1-hydroxypropyl-(R)-2-carbamate] |  | III = Grip strength, effect (%) compared to that of control treated with vehicle only (male mice (ICR) [3]; 120 mg/kg administered, intraperitoneal): 120 ^a (35.4%); IV = Wire hang, effect (%) compared to that of control treated with vehicle only (male mice (ICR) [4]): 100 ^a (30.8%) |
| C[C@H](OC(N)=O)[C@@H](O)c1ccccc1I [Compound 65, 1-(2-iodophenyl)-(S)-1-hydroxypropyl-(S)-2-carbamate] | 28.0 mg/kg, bw |  |
| C[C@@H](OC(N)=O)[C@H](O)c1ccccc1I [Compound 66, 1-(2-iodophenyl)-(R)-1-hydroxypropyl-(R)-2-carbamate] | 67.9 mg/kg, bw |  |
| CC[C@H](OC(N)=O)[C@@H](O)c1ccccc1I [Compound 67, 1-(2-iodophenyl)-(S)-1-hydroxybutyl-(S)-2-carbamate] | 30.2 mg/kg, bw |  |
